Reference: patent US20260209213A1, “SELECTIVE ANGIOTENSIN II COMPOUNDS” (VICORE PHARMA AB, priority 2023, published 2026)
Read-outs that look alike come from different tables or passages of the source.

Key:
Assay type in all cases: in vitro ADME
[1] = Metabolic stability in pooled human liver microsomes; settings: pooled human liver microsomes 0.5 mg/mL, 1 μM compound, 37° C.
Protocol: Pooled human liver microsomes in PBS at a concentration of 0.5 mg/mL was incubated with or without 1 mM NADPH for 70 min at 37° C. Test compound was added after 10 minutes to a final concentration of 1 μM. Samples were withdrawn at 0, 5, 15 and 60 minutes and added to test tubes containing acetonitrile, to stop the reaction, and with terfenadine, used as internal standard. After centrifugation at 10 000×g for 5 minutes the supernatant was diluted 1:1 with 1% formic acid. Samples were separated on a reverse phase column and detected by triple quadrupole MSMS (Agilant model 6540). The concentration of the parent compound at the different time points was measured with an external standard curve using terfenadine as internal standard and the initial metabolic rate in the presence or absence of NADPH calculated.

[2] = target: T1, CYP1A2 (Homo sapiens, UniProt P05177); assay: in vitro; settings: human liver microsomes, substrate phenacetin, read-out: CYP1A2 Inh %
T1 construct: using isoform-specific substrates incubated with human liver microsomes; tissue Eurofins protocol ITEMG232; host or cells: human liver microsomes
Protocol: (§1) The following substrates were used; CYP1 Å phenacetin, […] bupropion, CYP2C8 paclitaxel and amodiaquine, CYP2C9 diclofenac, CYP2C19 omeprazole, CYP2D6 dextromethorphan, CYP3 Å midazolam and testosterone.
(§2) At the end of the incubation, the formation of metabolite was monitored by HPLC-MS/MS as the peak area response.

[3] = target: T2, CYP2B6 (Homo sapiens, UniProt P20813); assay: CYP inhibition in human liver microsomes; settings: probe bupropion, substrate bupropion, read-out: CYP2B6 Inh %
T2 construct: using isoform-specific substrates incubated with human liver microsomes; tissue Eurofins protocol ITEMG232; host or cells: human liver microsomes
T2 sequence (P20813 1-491): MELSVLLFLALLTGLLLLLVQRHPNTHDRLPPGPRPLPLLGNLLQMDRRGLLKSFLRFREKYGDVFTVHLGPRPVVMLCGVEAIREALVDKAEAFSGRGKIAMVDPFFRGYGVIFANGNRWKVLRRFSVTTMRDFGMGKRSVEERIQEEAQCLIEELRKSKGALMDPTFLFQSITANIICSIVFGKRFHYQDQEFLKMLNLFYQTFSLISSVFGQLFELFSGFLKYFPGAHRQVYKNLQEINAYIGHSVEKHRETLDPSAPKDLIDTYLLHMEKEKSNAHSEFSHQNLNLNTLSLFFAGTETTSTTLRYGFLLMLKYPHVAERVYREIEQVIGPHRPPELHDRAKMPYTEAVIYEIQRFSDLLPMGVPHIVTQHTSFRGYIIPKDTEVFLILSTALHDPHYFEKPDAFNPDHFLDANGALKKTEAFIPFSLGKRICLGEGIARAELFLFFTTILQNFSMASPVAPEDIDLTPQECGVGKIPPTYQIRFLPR
Protocol: as §1, §2

[4] = target: T3, CYP2C19 (Homo sapiens, UniProt P33261); assay: CYP inhibition in human liver microsomes; settings: probe omeprazole, substrate omeprazole, read-out: CYP2C19 Inh %
T3 construct: using isoform-specific substrates incubated with human liver microsomes; tissue Eurofins protocol ITEMG232; host or cells: human liver microsomes
Protocol: as §1, §2

[5] = target: T4, CYP2C8 (Homo sapiens, UniProt P10632); assay: CYP inhibition in human liver microsomes; settings: probe paclitaxel and amodiaquine, substrates paclitaxel and amodiaquine, read-out: CYP2C8 Inh %
T4 construct: using isoform-specific substrates incubated with human liver microsomes; tissue Eurofins protocol ITEMG232; host or cells: human liver microsomes
T4 sequence (P10632 1-490): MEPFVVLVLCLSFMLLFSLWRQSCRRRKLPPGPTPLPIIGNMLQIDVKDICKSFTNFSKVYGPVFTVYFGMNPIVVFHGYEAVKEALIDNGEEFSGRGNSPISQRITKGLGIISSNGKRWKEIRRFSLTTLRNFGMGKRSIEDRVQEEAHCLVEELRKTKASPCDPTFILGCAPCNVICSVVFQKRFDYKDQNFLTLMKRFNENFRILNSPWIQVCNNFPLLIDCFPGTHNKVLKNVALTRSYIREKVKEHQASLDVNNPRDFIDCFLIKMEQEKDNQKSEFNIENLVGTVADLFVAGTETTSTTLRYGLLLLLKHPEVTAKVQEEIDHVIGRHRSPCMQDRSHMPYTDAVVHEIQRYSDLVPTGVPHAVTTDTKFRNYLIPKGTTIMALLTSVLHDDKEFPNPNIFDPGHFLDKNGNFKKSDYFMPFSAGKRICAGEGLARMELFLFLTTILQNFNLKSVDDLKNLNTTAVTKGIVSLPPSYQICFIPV
Protocol: as §1, §2

[6] = target: T5, CYP2D6 (Homo sapiens, UniProt P10635); assay: CYP inhibition in human liver microsomes; settings: probe dextromethorphan, substrate dextromethorphan, read-out: CYP2D6 Inh %
T5 construct: tissue Eurofins protocol ITEMG232; host or cells: human liver microsomes
Protocol: as §1, §2

[7] = tested on: CYP3A4&5; assay: CYP inhibition in human liver microsomes (testosterone); settings: probe testosterone, substrate testosterone, read-out: CYP3A4&5 testosterone Inh %
Protocol: as §1, §2

[8] = target: T6, CYP2C9 (Homo sapiens, UniProt P11712); assay: CYP inhibition in human liver microsomes; set-up: using isoform-specific substrates incubated with human liver microsomes; tissue Eurofins protocol ITEMG232; host or cells: human liver microsomes; settings: probe diclofenac, substrate diclofenac, read-out: CYP2C9 Inh %
Protocol: as §1, §2

[9] = target: T7, CYP3A4 (Homo sapiens, UniProt P08684); assay: CYP inhibition in human liver microsomes (midazolam); set-up: using isoform-specific substrates incubated with human liver microsomes; tissue Eurofins protocol ITEMG232; host or cells: human liver microsomes; settings: probe midazolam, substrate midazolam, read-out: CYP3A4 midazolam Inh %
Protocol: as §1, §2

[10] = target: T6, CYP2C9; assay: CYP inhibition found during development of C21
[11] = target: T7, CYP3A4; assay: CYP inhibition found during development of C21
[12] = Metabolic hydrolysis found during development of C21
[13] = with 1 mM NADPH, read-out: T1/2, + NaDPH
[14] = without NADPH, read-out: T1/2, no NaDPH

T6 sequence (P11712 whole entry, canonical isoform): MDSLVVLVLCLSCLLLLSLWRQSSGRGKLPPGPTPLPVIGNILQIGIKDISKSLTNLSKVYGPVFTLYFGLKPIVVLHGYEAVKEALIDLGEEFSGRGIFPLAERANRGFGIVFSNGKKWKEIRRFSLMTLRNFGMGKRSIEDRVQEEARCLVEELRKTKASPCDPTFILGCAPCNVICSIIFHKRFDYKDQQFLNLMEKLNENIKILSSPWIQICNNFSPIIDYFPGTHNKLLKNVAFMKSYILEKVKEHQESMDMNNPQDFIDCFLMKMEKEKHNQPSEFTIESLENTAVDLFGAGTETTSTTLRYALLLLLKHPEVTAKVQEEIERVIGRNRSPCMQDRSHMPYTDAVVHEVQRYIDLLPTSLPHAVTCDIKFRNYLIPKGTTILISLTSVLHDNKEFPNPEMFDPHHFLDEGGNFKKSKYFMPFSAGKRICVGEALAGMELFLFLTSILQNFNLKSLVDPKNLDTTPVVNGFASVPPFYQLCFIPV
T7 sequence (P08684 whole entry, canonical isoform): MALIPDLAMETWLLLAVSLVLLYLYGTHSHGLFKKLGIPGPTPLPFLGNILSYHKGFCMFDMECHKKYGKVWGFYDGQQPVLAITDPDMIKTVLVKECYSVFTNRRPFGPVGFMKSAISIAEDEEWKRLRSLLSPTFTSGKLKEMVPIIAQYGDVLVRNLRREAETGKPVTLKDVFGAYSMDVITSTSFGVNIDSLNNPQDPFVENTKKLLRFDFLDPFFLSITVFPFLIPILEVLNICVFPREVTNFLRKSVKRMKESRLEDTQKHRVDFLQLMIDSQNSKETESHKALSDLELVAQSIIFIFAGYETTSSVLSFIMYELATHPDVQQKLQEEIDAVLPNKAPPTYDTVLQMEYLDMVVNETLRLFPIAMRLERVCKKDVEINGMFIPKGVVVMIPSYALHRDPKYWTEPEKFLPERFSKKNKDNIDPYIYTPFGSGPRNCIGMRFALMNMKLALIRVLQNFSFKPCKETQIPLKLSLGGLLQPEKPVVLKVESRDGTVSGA
T3 sequence (P33261 whole entry, canonical isoform): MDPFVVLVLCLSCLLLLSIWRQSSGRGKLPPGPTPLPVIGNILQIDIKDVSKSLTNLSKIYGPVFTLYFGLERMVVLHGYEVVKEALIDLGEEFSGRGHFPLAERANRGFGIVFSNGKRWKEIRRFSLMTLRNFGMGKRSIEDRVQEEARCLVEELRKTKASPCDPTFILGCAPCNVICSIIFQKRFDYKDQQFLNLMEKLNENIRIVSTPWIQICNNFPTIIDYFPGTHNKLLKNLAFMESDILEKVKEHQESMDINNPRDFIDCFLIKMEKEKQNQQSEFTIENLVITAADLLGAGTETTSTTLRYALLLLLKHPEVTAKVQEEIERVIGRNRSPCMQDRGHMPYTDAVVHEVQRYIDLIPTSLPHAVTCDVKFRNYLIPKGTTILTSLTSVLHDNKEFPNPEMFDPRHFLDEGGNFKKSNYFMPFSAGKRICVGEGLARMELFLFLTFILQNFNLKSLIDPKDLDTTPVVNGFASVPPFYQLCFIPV
T1 sequence (P05177 whole entry, canonical isoform): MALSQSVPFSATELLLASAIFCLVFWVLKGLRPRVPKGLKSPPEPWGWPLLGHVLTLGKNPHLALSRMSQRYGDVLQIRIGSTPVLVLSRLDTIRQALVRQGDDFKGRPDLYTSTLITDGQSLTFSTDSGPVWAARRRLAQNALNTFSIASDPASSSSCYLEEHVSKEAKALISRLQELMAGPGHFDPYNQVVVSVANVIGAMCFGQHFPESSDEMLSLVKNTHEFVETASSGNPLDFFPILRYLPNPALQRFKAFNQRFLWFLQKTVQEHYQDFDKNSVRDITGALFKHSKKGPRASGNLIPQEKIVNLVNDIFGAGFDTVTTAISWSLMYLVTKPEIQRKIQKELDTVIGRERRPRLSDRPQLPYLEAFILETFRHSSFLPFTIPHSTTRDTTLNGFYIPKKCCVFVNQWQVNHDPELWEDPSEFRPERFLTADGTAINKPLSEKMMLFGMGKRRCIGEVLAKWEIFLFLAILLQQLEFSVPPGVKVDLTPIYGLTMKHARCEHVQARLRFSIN
T5 sequence (P10635 whole entry): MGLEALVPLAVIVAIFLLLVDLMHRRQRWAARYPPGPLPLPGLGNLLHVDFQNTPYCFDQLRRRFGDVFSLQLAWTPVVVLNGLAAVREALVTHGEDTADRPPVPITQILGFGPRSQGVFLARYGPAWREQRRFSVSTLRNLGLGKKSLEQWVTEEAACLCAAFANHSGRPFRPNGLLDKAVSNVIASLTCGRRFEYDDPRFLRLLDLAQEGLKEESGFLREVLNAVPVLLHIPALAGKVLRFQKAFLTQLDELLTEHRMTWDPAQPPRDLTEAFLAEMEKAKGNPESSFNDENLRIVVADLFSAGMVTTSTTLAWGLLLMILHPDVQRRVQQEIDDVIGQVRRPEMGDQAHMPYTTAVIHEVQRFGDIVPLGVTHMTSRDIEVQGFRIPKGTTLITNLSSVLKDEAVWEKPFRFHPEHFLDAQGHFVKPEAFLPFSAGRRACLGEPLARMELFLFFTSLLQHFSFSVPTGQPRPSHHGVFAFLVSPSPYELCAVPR

Cc1nccn1Cc1ccc(-c2cc(CC(C)C)sc2S(=O)(=O)Nc2ncccn2)cc1Cl [Example 1, 3-[3-Chloro-4-[(2-methylimidazol-1-yl)methyl]phenyl]-5-isobutyl-N-pyrimidin-2-yl-thiophene-2-sulfonamide]
half-life at 1 μM [1, 13]: > 1 h | half-life at 1 μM [1, 14]: > 1 h | inhibition at 10 µM [2]: 12.3% | inhibition at 10 µM [3]: 22.4% | inhibition at 10 µM [4]: 72.7% | inhibition at 10 µM [5]: 33.9% | inhibition at 10 µM [6]: 28.3% | inhibition at 10 µM [7]: 40.1% | inhibition at 10 µM [8]: 49.4% | inhibition at 10 µM [9]: 40.1%

Cc1nccn1Cc1ccc(-c2cc(CC(C)C)sc2S(=O)(=O)Nc2ccccn2)cc1Cl [Example 2, 3-[3-Chloro-4-[(2-methylimidazol-1-yl)methyl]phenyl]-5-isobutyl-N-(2-pyridyl)thiophene-2-sulfonamide]
half-life at 1 μM [1, 13]: 1 h | half-life at 1 μM [1, 14]: > 1 h

Cc1cc(-c2cc(CC(C)C)sc2S(=O)(=O)Nc2ccccn2)ccc1Cn1ccnc1C [Example 3, 5-Isobutyl-3-[3-methyl-4-[(2-methylimidazol-1-yl)methyl]phenyl]-N-(2-pyridyl)thiophene-2-sulfonamide]
half-life at 1 μM [1, 13]: 0.883 h | half-life at 1 μM [1, 14]: > 1 h

CCCCOC(=O)NS(=O)(=O)c1sc(CC(C)C)cc1-c1ccc(Cn2ccnc2)cc1 [Example C21, N-butyloxycarbonyl-3-(4-imidazol-1-ylmethylphenyl)-5-isobutylthiophene-2-sulfon-amide]
inhibition at 10 µM [7]: 94% | inhibition of CYP 2C9 (in words) [10]: potent inhibitor | inhibition of CYP 3A4 (in words) [11]: potent inhibitor | metabolic hydrolysis (in words) [12]: rapidly hydrolysed to an inactive sulfonamide metabolite
